From patent publication US20230014907A1, “INHIBITORS OF APOL1 AND METHODS OF USING SAME” (Vertex Pharmaceuticals Incorporated, priority 2020, published 2023)

Target: T1, G1 APOL1 (Homo sapiens, UniProt O14791, I384M/S342G)
T1 construct: expressed in transfected cells
T1 sequence (O14791 28-398 S342G/I384M): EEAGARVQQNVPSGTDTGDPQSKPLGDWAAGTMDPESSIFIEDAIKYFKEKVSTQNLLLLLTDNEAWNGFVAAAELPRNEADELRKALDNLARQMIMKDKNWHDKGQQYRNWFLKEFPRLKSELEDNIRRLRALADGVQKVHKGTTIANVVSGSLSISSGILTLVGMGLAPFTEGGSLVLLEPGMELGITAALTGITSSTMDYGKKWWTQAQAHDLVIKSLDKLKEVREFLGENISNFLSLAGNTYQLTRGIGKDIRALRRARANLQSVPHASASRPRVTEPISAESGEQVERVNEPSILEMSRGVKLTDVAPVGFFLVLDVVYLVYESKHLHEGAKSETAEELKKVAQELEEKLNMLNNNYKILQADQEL
Assay: Acute APOL1 Thallium Assay with Inducible Stable Clones of HEK 293 Cells
Assay type: cell-based
Conditions: HEK 293 inducible stable clones, G1 APOL1; read-out: Thallium Assay (IC50)
Summary of the method: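 HEK293 T-Rex cells with a stable tetracycline-inducible G1 APOL1 construct (clone DC3.25) were induced with tetracycline at plating, 26000 cells per well, then incubated at 37° C. They were loaded with an AM-ester thallium-sensitive dye and stimulated with Tl+. The fluorescence rise measured Tl+ influx through APOL1 pores.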

IC50	SMILES
> 1000 nM	NC(=O)[C@@H](CO)NC(=O)CCc1c(-c2ccc(F)cc2)[nH]c2c(F)cc(Cl)cc12 [Compound 202]
> 1000 nM	Cc1cc(F)c2[nH]c(-c3ccc(F)cc3)c(CCC(=O)NC(C)(CO)CO)c2c1 [Compound 225]
> 1000 nM	O=C(Cc1nccs1)NCCc1c(-c2ccc(F)cc2)[nH]c2c(F)cc(F)cc12 [Compound 376]
250 to 1000 nM	O=C(NC[C@H](O)CO)OCCc1c(-c2ccc(F)cc2)[nH]c2c(F)cc(F)cc12 [Compound 470]
< 250 nM	CC(CO)NC(=O)OCCc1c(-c2ccc(F)cc2)[nH]c2c(F)cc(F)cc12 (racemic) [Compound 439]
> 1000 nM	CC1(CNC(=O)NCCc2c(-c3ccc(F)cc3)[nH]c3c(F)cc(F)cc23)COC1 [Compound 298]
< 250 nM	C[C@H](CO)NC(=O)OCCc1c(-c2ccc(F)cc2)[nH]c2c(F)cc(F)cc12 [Compound 445]
> 1000 nM	O=C1N[C@H](C(=O)NCCc2c(-c3ccc(F)cc3)[nH]c3c(F)cc(F)cc23)CCO1 [Compound 323]
< 250 nM	O=C(NC(CO)CO)OCCc1c(-c2ccc(F)cc2)[nH]c2c(F)cc(F)cc12 [Compound 437]
< 250 nM	O=C(NCCc1c(-c2ccc(F)cc2)[nH]c2c(F)cc(F)cc12)C1(CO)CC1 [Compound 347]
> 1000 nM	NC(=O)CNC(=O)CCCc1c(-c2ccc(F)cc2)[nH]c2c(F)cc(F)cc12 [Compound 246]
> 1000 nM	Cn1ccnc1S(=O)(=O)NCCc1c(-c2ccc(F)cc2)[nH]c2c(F)cc(F)cc12 [Compound 424]
> 1000 nM	CC(CC(=O)NCCc1c(-c2ccc(F)cc2)[nH]c2c(F)cc(F)cc12)C(N)=O (racemic) [Compound 335]
> 1000 nM	CC(=O)NCCc1c(-c2ccc(F)cc2)[nH]c2c(F)cc(F)cc12 [Compound 418, N-[2-[5,7-difluoro-2-(4-fluorophenyl)-1H-indol-3-yl]ethyl]acetamide]
> 1000 nM	O=C(NCCc1c(-c2ccc(F)cc2)[nH]c2c(F)cc(F)cc12)c1cnccn1 [Compound 398]
> 1000 nM	CS(=O)(=O)CCNC(=O)NCCc1c(-c2ccc(F)cc2)[nH]c2c(F)cc(F)cc12 [Compound 287]
250 to 1000 nM	O=C(N[C@H]1CCOC1)OCCc1c(-c2ccc(F)cc2)[nH]c2c(F)cc(F)cc12 [Compound 469]

More lines, now with the values behind:

SMILES	IC50
CC(CO)CNC(=O)NCCc1c(-c2ccc(F)cc2)[nH]c2c(F)cc(F)cc12 (racemic) [Compound 280]	> 1000 nM
CC1(CO)CCN1C(=O)OCCc1c(-c2ccc(F)cc2)[nH]c2c(F)cc(F)cc12 (racemic) [Compound 480]	> 1000 nM
CC[C@@H](CO)NC(=O)OCCc1c(-c2ccc(F)cc2)[nH]c2c(F)cc(F)cc12 [Compound 446]	< 250 nM
O=C(CNC(=O)NCCc1c(-c2ccc(F)cc2)[nH]c2c(F)cc(F)cc12)NO [Compound 260]	> 1000 nM
NC(=O)C(=O)NCCc1c(-c2ccc(F)cc2)[nH]c2c(F)cc(F)cc12 [Compound 364]	250 to 1000 nM
O=C(NC1CCOC1)OCCc1c(-c2ccc(F)cc2)[nH]c2c(F)cc(F)cc12 (stereo not drawn) [Compound 463]	250 to 1000 nM
Cc1cc(F)c2[nH]c(-c3ccc(F)cc3)c(CCC(=O)NCCO)c2c1 [Compound 218]	> 1000 nM
O=C(CCc1c(-c2ccc(F)cc2)[nH]c2c(F)cc(Cl)cc12)NCCO [Compound 199]	250 to 1000 nM
CCC(O)CNC(=O)OCCc1c(-c2ccc(F)cc2)[nH]c2c(F)cc(F)cc12 (stereo not drawn) [Compound 472]	250 to 1000 nM
O=C(NC1CC(F)(F)C1)OCCc1c(-c2ccc(F)cc2)[nH]c2c(F)cc(F)cc12 [Compound 465]	250 to 1000 nM
O=C(NCCc1c(-c2ccc(F)cc2)[nH]c2c(F)cc(F)cc12)N[C@H]1CCNC1=O [Compound 277]	> 1000 nM
CC(C#N)(CO)NC(=O)OCCc1c(-c2ccc(F)cc2)[nH]c2c(F)cc(F)cc12 (racemic) [Compound 461]	250 to 1000 nM
O=C1CC(C(=O)NCCc2c(-c3ccc(F)cc3)[nH]c3c(F)cc(F)cc23)CCN1 (stereo not drawn) [Compound 331]	> 1000 nM
